Assay results: patent US7560468B2, “Substituted 1,4,8-triazaspiro[4,5]decan-2-one compounds” (Gruenenthal GmbH, priority 2004, dated 2009)

What was measured:
[1] = tested on: batrachotoxin (BTX) binding site of the sodium channel; assay: Affinity to the batrachotoxin (BTX) binding site of the sodium channel; details: rat cerebrocortex synaptosomes, [3H]-batrachotoxinin A20 α-benzoate 10 nM; test concentration not given
[2] = molecular target: T1, 5-HT transporter (Rattus norvegicus, UniProt P31652); assay: Inhibition of 5-HT uptake in synaptosomes; assay type: biochemical; details: for inhibition at 1 µM: read-out: Uptake_5-HT, rat, 1 μM, % inhibition
T1 construct: from tissue; host or cells: rat brain synaptosomes (marrow/medulla and pons), P2 fraction
T1 sequence (P31652 whole entry): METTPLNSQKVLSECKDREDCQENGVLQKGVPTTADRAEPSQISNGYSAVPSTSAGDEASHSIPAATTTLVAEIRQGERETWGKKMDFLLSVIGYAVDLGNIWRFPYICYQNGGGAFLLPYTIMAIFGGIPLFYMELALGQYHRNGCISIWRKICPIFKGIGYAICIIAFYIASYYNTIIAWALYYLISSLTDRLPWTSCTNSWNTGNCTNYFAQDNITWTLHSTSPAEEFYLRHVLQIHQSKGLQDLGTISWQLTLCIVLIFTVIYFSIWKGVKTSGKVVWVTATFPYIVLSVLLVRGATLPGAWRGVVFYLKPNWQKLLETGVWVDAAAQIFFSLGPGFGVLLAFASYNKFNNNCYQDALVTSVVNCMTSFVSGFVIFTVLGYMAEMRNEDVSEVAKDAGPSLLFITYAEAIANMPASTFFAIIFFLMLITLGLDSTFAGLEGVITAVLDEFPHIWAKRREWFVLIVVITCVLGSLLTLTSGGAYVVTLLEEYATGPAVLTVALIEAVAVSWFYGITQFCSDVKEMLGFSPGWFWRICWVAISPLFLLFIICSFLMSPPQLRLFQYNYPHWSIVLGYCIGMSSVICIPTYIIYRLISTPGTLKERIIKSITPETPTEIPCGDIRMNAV

Row | Molecule | BTX Inhibition [1] | Uptake_5-HT, rat, 1 μM, % inhibition [2] [%] | inhibition at 1 µM [2] [%]
1 | CSCCC1NC2(CCN(C(=O)Nc3cccc(F)c3)CC2)N(Cc2ccc3ccccc3c2)C1=O (centres unmarked) [Example 240, 3-(2-Methylsulfanylethyl)-1-naphthalin-2-ylmethyl-2-oxo-1,4,8-triazaspiro[4,5]decan-8-carboxylic acid (3-fluorobenzol)amide] | 78 | 63 | –
2 | CCOC(=O)CN1C(=O)C(Cc2ccccc2)NC12CCN(S(=O)(=O)c1ccc(F)c(Cl)c1)CC2 (centres unmarked) [Example 69, Ethyl[3-benzyl-8-(3-chloro-4-fluorobenzolsulfonyl)-2-oxo-1,4,8-triazaspiro[4,5]dec-1-yl]-acetate] | 73 | 62 | –
3 | CSCCC1NC2(CCN(C(=S)Nc3ccccc3C)CC2)N(Cc2ccc(F)cc2)C1=O (centres unmarked) [Example 186, 1-(4-Fluorobenzyl)-3-(2-methylsulfanylethyl)-2-oxo-1,4,8-triazaspiro[4,5]decan-8-thiocarboxylic acid o-tolylamide] | 52 | – | 55
4 | CCC(C)(C)c1ccc(S(=O)(=O)N2CCC3(CC2)NCC(=O)N3Cc2ccccc2C#N)cc1 [Example 6, 2-{8-[4-(1,1-Dimethylpropyl)benzolesulfonyl]-2-oxo-1,4,8-triazaspiro[4,5]dec-1-ylmethyl}-benzonitrile] | 56 | 57 | –
5 | CSCCC1NC2(CCN(C(=S)Nc3cc(F)ccc3F)CC2)N(Cc2ccccc2)C1=O (centres unmarked) [Example 140, 1-Benzyl-3-(2-methylsulfanylethyl)-2-oxo-1,4,8-triazaspiro[4,5]decan-8-thiocarboxylic acid (2,5-difluorobenzol)amide] | 53 | 59 | –
6 | Cc1cc(C)c(S(=O)(=O)N2CCC3(CC2)NCC(=O)N3Cc2cccc(C#N)c2)c(C)c1 [Example 59, 3-[2-Oxo-8-(2,4,6-trimethylbenzolsulfonyl)-1,4,8-triazaspiro[4,5]dec-1-ylmethyl]-benzonitrile] | 50 | 50 | –
7 | Ethyl[3-b-8-(3-fluorobenzolcarbamoyl)-2-oxo-1,4,8-triazaspiro[4,5]dec-1-yl]-acetate [Example 245] | 31 | 51 | –
8 | CCCCN1C(=O)C(CCSC)NC12CCN(C(=O)Nc1ccccc1)CC2 (centres unmarked) [Example 207, 1-Butyl-3-(2-methylsulfanylethyl)-2-oxo-1,4,8-triazaspiro[4,5]decan-8-carboxylic acid benzolamide] | 35 | 39 | –
9 | COC(=O)c1ccccc1S(=O)(=O)N1CCC2(CC1)NC(CCSC)C(=O)N2Cc1ccc(F)cc1 (centres unmarked) [Example 23, Methyl 2-[1-(4-fluorobenzyl)-3-(2-methylsulfanylethyl)-2-oxo-1,4,8-triazaspiro[4,5]decan-8-sulfonyl]-benzoate] | 40 | – | 69
10 | CCCc1ccc(S(=O)(=O)N2CCC3(CC2)NC(Cc2ccccc2)C(=O)N3CC(=O)OCC)cc1 (centres unmarked) [Example 67, Ethyl[3-benzyl-2-oxo-8-(4-propylbenzolsulfonyl)-1,4,8-triazaspiro[4,5]dec-1-yl]-acetate] | 40 | 64 | –
11 | CCCCN1C(=O)C(CCSC)NC12CCN(C(=S)NCC1CCCCC1)CC2 (centres unmarked) [Example 132, 1-Butyl-3-(2-methylsulfanylethyl)-2-oxo-1,4,8-triazaspiro[4,5]decan-8-thiocarboxylic acid cyclohexylmethylamide] | 71 | – | 30
12 | CCCCN1C(=O)C(C(C)C)NC12CCN(C(=S)Nc1ccccc1)CC2 (centres unmarked) [Example 116, 1-Butyl-3-isopropyl-2-oxo-1,4,8-triazaspiro[4,5]decan-8-thiocarboxylic acid benzolamide] | 30 | 40 | –
13 | CCOC(=O)CN1C(=O)C(Cc2ccccc2)NC12CCN(S(=O)(=O)c1cc(OC)ccc1OC)CC2 (centres unmarked) [Example 74, Ethyl[3-benzyl-8-(2,5-dimethoxy-benzolsulfonyl)-2-oxo-1,4,8-triazaspiro[4,5]dec-1-yl]-acetate] | 30 | 74 | –
14 | CCCCN1C(=O)C(CCSC)NC12CCN(C(=O)Nc1ccc(Cl)c(C(F)(F)F)c1)CC2 (centres unmarked) [Example 227, 1-Butyl-3-(2-methylsulfanylethyl)-2-oxo-1,4,8-triazaspiro[4,5]decan-8-carboxylic acid (4-chloro-3-trifluoromethylbenzol)amide] | 85 | 58 | –
15 | CCCCN1C(=O)C(Cc2ccccc2)NC12CCN(S(=O)(=O)c1ccc(CC)cc1)CC2 (centres unmarked) [Example 33, 3-Benzyl-1-butyl-8-(4-ethylbenzolsulfonyl)-1,4,8-triazaspiro[4,5]decan-2-one] | 54 | 67 | –
16 | Cc1cc(C)c(S(=O)(=O)N2CCC3(CC2)NC(C(C)C)C(=O)N3Cc2ccccc2)c(C)c1 (centres unmarked) [Example 14, 1-Benzyl-3-isopropyl-8-(2,4,6-trimethylbenzolsulfonyl)-1,4,8-triazaspiro[4,5]decan-2-one] | 68 | 61 | –
17 | CCOC(=O)c1ccc(NC(=O)N2CCC3(CC2)NC(Cc2ccccc2)C(=O)N3Cc2ccccc2F)cc1 (centres unmarked) [Example 235, Ethyl 4-{[3-benzyl-1-(2-fluorobenzyl)-2-oxo-1,4,8-triazaspiro[4,5]decan-8-carbonyl]-amino}-benzoate] | 77 | – | 65
18 | O=C1C(Cc2ccccc2)NC2(CCN(S(=O)(=O)c3ccccc3F)CC2)N1Cc1ccccc1 (centres unmarked) [Example 37, 1,3-Dibenzyl-8-(2-fluorobenzolsulfonyl)-1,4,8-triazaspiro[4,5]decan-2-one] | 61 | 73 | –
19 | CSCCC1NC2(CCN(S(=O)(=O)c3ccc(C)cc3)CC2)N(Cc2ccc(F)cc2)C1=O (centres unmarked) [Example 44, 1-(4-Fluorobenzyl)-3-(2-methylsulfanylethyl)-8-(toluol-4-sulfonyl)-1,4,8-triazaspiro[4,5]decan-2-one] | 42 | 42 | –
20 | CCOC(=O)NC(=S)N1CCC2(CC1)NC(CCSC)C(=O)N2Cc1ccccc1C#N (centres unmarked) [Example 146, Ethyl[1-(2-cyanobenzyl)-3-(2-methylsulfanylethyl)-2-oxo-1,4,8-triazaspiro[4,5]decan-8-carbothioyl]-carbamate] | 30 | – | 30
21 | CCOC(=O)CN1C(=O)C(Cc2ccccc2)NC12CCN(S(=O)(=O)c1cccc(C)c1)CC2 (centres unmarked) [Example 63, Ethyl[3-benzyl-2-oxo-8-(toluol-3-sulfonyl)-1,4,8-triazaspiro[4,5]dec-1-yl]-acetate] | 36 | 59 | –
22 | CSCCC1NC2(CCN(C(=S)Nc3ccc(C(C)C)cc3)CC2)N(Cc2ccccc2)C1=O (centres unmarked) [Example 139, 1-Benzyl-3-(2-methylsulfanylethyl)-2-oxo-1,4,8-triazaspiro[4,5]decan-8-thiocarboxylic acid (4-isopropylbenzol)amide] | 97 | 63 | –
